Source: article PMC8016998, “Identification of potential therapeutic antimicrobial peptides against Acinetobacter baumannii in a mouse model of pneumonia” (Scientific Reports, 2021)
Read-outs that look alike come from different tables or passages of the source. No end group written: not given here.

Legend:
[1] = tested on: MDRAB clinical strain AL87; type: cell-based, Acinetobacter baumannii
Experimental: (§1) MBC were determined by extending the MIC procedure in sterilized 96-well polypropylene microtiter plates according to the broth microdilution guidelines of the Clinical and Laboratory Standards Institute with some modification[47]. […] In addition, 10 µL was drawn from each well with no visible turbidity onto LB agar plates and incubated for 24 h at 37 °C. The lowest concentration showing no visible growth on agar subculture was used as the MBC value. All experiments were performed in triplicate.

[2] = tested on: MDRAB clinical strain AK61; type: cell-based, Acinetobacter baumannii
Experimental: as §1

[3] = tested on: MDRAB clinical strain AF11; type: cell-based, Acinetobacter baumannii
Experimental: as §1

[4] = tested on: MDRAB clinical strain L87; type: cell-based, Acinetobacter baumannii
[5] = tested on: MDRAB clinical strain AF93; type: cell-based, Acinetobacter baumannii
[6] = tested on: MDRAB clinical strain AS40; type: cell-based, Acinetobacter baumannii
[7] = tested on: MDRAB clinical strain W11; type: cell-based, Acinetobacter baumannii
MDRAB clinical strain K2 = type: cell-based, Acinetobacter baumannii
Experimental: as §1

[8] = tested on: MDRAB clinical strain Y92; type: cell-based, Acinetobacter baumannii
Experimental: as §1

[9] = tested on: MDRAB clinical strain AF12; type: cell-based, Acinetobacter baumannii
Experimental: as §1

[10] = tested on: MDRAB clinical strain J49; type: cell-based, Acinetobacter baumannii
Experimental: as §1

[11] = tested on: MDRAB clinical strain AO80; type: cell-based, Acinetobacter baumannii
Experimental: as §1

[12] = tested on: MDRAB clinical strain AZ93; type: cell-based, Acinetobacter baumannii
Experimental: as §1

[13] = tested on: MDRAB clinical strain AE5; type: cell-based, Acinetobacter baumannii
Experimental: as §1

[14] = tested on: MDRAB clinical strain AN10; type: cell-based, Acinetobacter baumannii
Experimental: as §1

[15] = tested on: MDRAB clinical strain AG51; type: cell-based, Acinetobacter baumannii
Experimental: as §1

[16] = tested on: MDRAB clinical strain D29; type: cell-based, Acinetobacter baumannii
Experimental: as §1

[17] = tested on: MDRAB clinical strain AK29; type: cell-based, Acinetobacter baumannii
Experimental: as §1

[18] = tested on: Acinetobacter baumannii 19,606; type: cell-based
[19] = tested on: MDRAB clinical strain U80; type: cell-based, Acinetobacter baumannii
Experimental: as §1

[20] = tested on: MDRAB clinical strain O59; type: cell-based, Acinetobacter baumannii
Experimental: as §1

[21] = tested on: MDRAB clinical strain AE6; type: cell-based, Acinetobacter baumannii
Experimental: as §1

[22] = tested on: MDRAB clinical strain U95; type: cell-based, Acinetobacter baumannii
MDRAB clinical strains = type: cell-based, Acinetobacter baumannii
Experimental: as §1

[23] = tested on: Acinetobacter baumannii 17,978; type: cell-based;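 note: CLSI broth microdilution in 96-well polypropylene plates, MBC taken as lowest concentration giving no growth when clear wells were subcultured on LB agar for 24 h at 37 °C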
[24] = 10 µL from wells without turbidity onto LB agar, 24 h at 37 °C, triplicate

ILGPVLSMVGSALGGLIKKI-NH2 [Maximin H2]
16 µg/mL: MIC (MDRAB clinical strain K2; strain K2, broth microdilution, LB, 24 h 37 °C) | MIC ([10]; strain J49, broth microdilution, LB, 24 h 37 °C) | MBC ([10]; strain J49, subculture on LB agar, 24 h 37 °C)
128 µg/mL: MIC ([3]; strain AF11, broth microdilution, LB, 24 h 37 °C) | MBC ([3]; strain AF11, subculture on LB agar, 24 h 37 °C) | MIC ([4]; strain L87, broth microdilution, LB, 24 h 37 °C) | MBC ([4]; strain L87, subculture on LB agar, 24 h 37 °C) | MBC ([7]; strain W11, subculture on LB agar, 24 h 37 °C) | MBC ([8]; strain Y92, subculture on LB agar, 24 h 37 °C) | MBC ([11]; strain AO80, subculture on LB agar, 24 h 37 °C) | MBC ([13]; strain AE5, subculture on LB agar, 24 h 37 °C) | MIC ([16]; strain D29, broth microdilution, LB, 24 h 37 °C) | MBC ([16]; strain D29, subculture on LB agar, 24 h 37 °C) | MIC ([19]; strain U80, broth microdilution, LB, 24 h 37 °C) | MBC ([19]; strain U80, subculture on LB agar, 24 h 37 °C) | MIC ([20]; strain O59, broth microdilution, LB, 24 h 37 °C) | MBC ([20]; strain O59, subculture on LB agar, 24 h 37 °C) | MIC ([21]; strain AE6, broth microdilution, LB, 24 h 37 °C) | MBC ([21]; strain AE6, subculture on LB agar, 24 h 37 °C) | MIC ([22]; strain U95, broth microdilution, LB, 24 h 37 °C) | MBC ([22]; strain U95, subculture on LB agar, 24 h 37 °C) | MBC [23, 24]
64 µg/mL: MIC ([1]; strain AL87, broth microdilution, LB, 24 h 37 °C) | MBC ([1]; strain AL87, subculture on LB agar, 24 h 37 °C) | MIC ([2]; strain AK61, broth microdilution, LB, 24 h 37 °C) | MBC ([2]; strain AK61, subculture on LB agar, 24 h 37 °C) | MIC ([5]; strain AF93, broth microdilution, LB, 24 h 37 °C) | MBC ([5]; strain AF93, subculture on LB agar, 24 h 37 °C) | MIC ([6]; strain AS40, broth microdilution, LB, 24 h 37 °C) | MBC ([6]; strain AS40, subculture on LB agar, 24 h 37 °C) | MIC ([7]; strain W11, broth microdilution, LB, 24 h 37 °C) | MIC ([8]; strain Y92, broth microdilution, LB, 24 h 37 °C) | MIC ([9]; strain AF12, broth microdilution, LB, 24 h 37 °C) | MBC ([9]; strain AF12, subculture on LB agar, 24 h 37 °C) | MIC ([11]; strain AO80, broth microdilution, LB, 24 h 37 °C) | MIC ([12]; strain AZ93, broth microdilution, LB, 24 h 37 °C) | MBC ([12]; strain AZ93, subculture on LB agar, 24 h 37 °C) | MIC ([13]; strain AE5, broth microdilution, LB, 24 h 37 °C) | MIC ([14]; strain AN10, broth microdilution, LB, 24 h 37 °C) | MBC ([14]; strain AN10, subculture on LB agar, 24 h 37 °C) | MBC ([15]; strain AG51, subculture on LB agar, 24 h 37 °C) | MIC ([23]; broth microdilution (CLSI, modified), LB medium, 5 × 10^5 CFU/mL, 24 h at 37 °C, lowest concentration with no visible growth, triplicate)
16 to 128 µg/mL: MIC (MDRAB clinical strains; range over MDRAB clinical strains (details in Supplementary Table 2), broth microdilution, LB, 24 h 37 °C) | MBC (MDRAB clinical strains; range over MDRAB clinical strains (details in Supplementary Table 2), subculture on LB agar, 24 h 37 °C)
32 µg/mL: MBC (MDRAB clinical strain K2; strain K2, subculture on LB agar, 24 h 37 °C) | MIC ([15]; strain AG51, broth microdilution, LB, 24 h 37 °C) | MIC ([17]; strain AK29, broth microdilution, LB, 24 h 37 °C) | MBC ([17]; strain AK29, subculture on LB agar, 24 h 37 °C) | MBC [18, 24] | MIC ([18]; broth microdilution (CLSI, modified), LB medium, 5 × 10^5 CFU/mL, 24 h at 37 °C, triplicate)

GWKKWFNRAKKVGKTVGGLAVDHYL-NH2 [NRC12]
32 µg/mL: MBC ([2]; 24 h) | MIC ([2]; 24 h) | MBC ([4]; 24 h) | MIC ([4]; 24 h) | MBC ([6]; 24 h) | MIC ([6]; 24 h) | MBC (MDRAB clinical strain K2; 24 h) | MBC ([11]; 24 h) | MIC ([11]; 24 h) | MBC ([12]; 24 h) | MIC ([12]; 24 h) | MBC ([19]; 24 h) | MIC ([19]; 24 h) | MBC ([20]; 24 h) | MIC ([20]; 24 h) | MBC ([22]; 24 h) | MIC ([22]; 24 h)
8 µg/mL: MBC ([1]; 24 h) | MIC ([1]; 24 h) | MIC ([9]; 24 h) | MBC ([14]; 24 h) | MIC ([14]; 24 h) | MBC ([15]; 24 h) | MIC ([15]; 24 h) | MBC ([17]; 24 h) | MIC ([17]; 24 h)
8 to 32 µg/mL: MBC (MDRAB clinical strains; 24 h) | MIC (MDRAB clinical strains; 24 h)
16 µg/mL: MBC ([3]; 24 h) | MIC ([3]; 24 h) | MBC ([5]; 24 h) | MIC ([5]; 24 h) | MBC ([7]; 24 h) | MIC ([7]; 24 h) | MIC (MDRAB clinical strain K2; 24 h) | MBC ([8]; 24 h) | MIC ([8]; 24 h) | MBC ([9]; 24 h) | MBC ([10]; 24 h) | MIC ([10]; 24 h) | MBC ([13]; 24 h) | MIC ([13]; 24 h) | MBC ([16]; 24 h) | MIC ([16]; 24 h) | MBC ([18]; 19,606, 24 h) | MIC ([18]; 19,606, 24 h) | MBC ([21]; 24 h) | MIC ([21]; 24 h) | MBC ([23]; 17,978, 24 h) | MIC ([23]; 17,978, 24 h)

GWGSFFKKAAHVGKHVGKAALTHYL-NH2 [Pleurocidin]
8 to 32 µg/mL: MBC (MDRAB clinical strains; 24 h) | MIC (MDRAB clinical strains; 24 h)
32 µg/mL: MBC ([4]; 24 h) | MIC ([4]; 24 h) | MBC (MDRAB clinical strain K2; 24 h) | MBC ([16]; 24 h) | MBC ([22]; 24 h) | MIC ([22]; 24 h)
16 µg/mL: MBC ([2]; 24 h) | MIC ([2]; 24 h) | MBC ([3]; 24 h) | MBC ([5]; 24 h) | MBC ([7]; 24 h) | MIC ([7]; 24 h) | MIC (MDRAB clinical strain K2; 24 h) | MBC ([10]; 24 h) | MIC ([10]; 24 h) | MBC ([13]; 24 h) | MIC ([13]; 24 h) | MBC ([14]; 24 h) | MIC ([14]; 24 h) | MIC ([16]; 24 h) | MBC ([17]; 24 h) | MBC ([18]; 19,606, 24 h) | MIC ([18]; 19,606, 24 h) | MBC ([19]; 24 h) | MIC ([19]; 24 h) | MBC ([20]; 24 h) | MIC ([20]; 24 h) | MBC ([21]; 24 h) | MIC ([21]; 24 h) | MBC ([23]; 17,978, 24 h) | MIC ([23]; 17,978, 24 h)
8 µg/mL: MBC ([1]; 24 h) | MIC ([1]; 24 h) | MIC ([3]; 24 h) | MIC ([5]; 24 h) | MBC ([6]; 24 h) | MIC ([6]; 24 h) | MBC ([8]; 24 h) | MIC ([8]; 24 h) | MBC ([9]; 24 h) | MIC ([9]; 24 h) | MBC ([11]; 24 h) | MIC ([11]; 24 h) | MBC ([12]; 24 h) | MIC ([12]; 24 h) | MBC ([15]; 24 h) | MIC ([15]; 24 h) | MIC ([17]; 24 h)
